No end group written: not given here.
Experiments:
anti-(390-404) antibody [1] = experiment: Cross-competition ELISA: anti-(390-404) antibody binding to immobilized PC with fluid-phase competitors; design: species or system rabbit; settings: fluid-phase competitor
Protocol: FIG. 1 illustrates anti-(390-404) antibody binding to immobilized Protein C (PC) in the presence of fluid-phase PC, peptide-(390-404), -(404-390) and -K395A-(390-404). […] Before admixing 2 μg/ml anti-(390-404) antibody to PC-coated wells, the anti-(390-404) antibody was admixed with 0 to 200 μg/ml of either PC, 0 to 1000 μM peptide (-390-404), 0 to 1000 μM peptide-(404-390), or 0-200 μM peptide-K395A-(390-404) for 30 minutes at 37° C. Following biotinylated-goat-anti-rabbit-IgG and streptavidin-alkaline-phosphatase immunoreactions as described in Example 2c, bound anti-(390-404) antibody was detected by addition of 5 milligrams/milliliter (mg/ml) p-nitrophenylphosphate in 0.1M diethanolamine at pH 9.6 followed by measuring of the change in absorbance at 405 nm over time. The amount of anti-(390-404) specifically bound to PC coated wells in the absence of any competing protein was defined as 100%. […]
The specificity of anti-(390-404) antibody for peptide-(390-404) and PC was confirmed by cross-competition binding experiments. […] Bound anti-(390-404) antibody to immobilized PC in the presence of competitors was detected as described in Example 2c.

anti-(390-404) antibody [2] = experiment: Solid-phase ELISA: binding of anti-(390-404) antibody to immobilized peptides and PC; design: species or system rabbit
Protocol: To determine the immunospecificity of the rabbit antisera obtained in Example 2b, ELISA assays were performed. Briefly, 50 μl of either 50 μM peptide-(390-404) prepared in Example 1 or 10 μg/ml of PC or APC prepared in Example 2c in a buffer consisting of 0.05M sodium carbonate (Na2 CO3) and 0.02% NaN3 at pH 9.0 were admixed into the wells of microtiter plates. The plates were maintained at 37° C. for one hour to permit the antigens to become operatively affixed to the well walls. After washing the antigen-coated wells with TBS, the wells were blocked with 250 μl/well of 10% bovine serum albumin (BSA) (Sigma) in TBS for one hour at 22° C. The blocking solution was then removed and the wells were subsequently washed five times with 250 μl/well of maintenance buffer (0.05M Tris-HCl, 0.1M NaCl, 0.02% NaN3, 1 mg/ml BSA, 5 mM CaCl2, 0.01% Tween 20 at pH 7.4). Fifty μl of rabbit non-immune or specific antiserum serially diluted in maintenance buffer was then admixed to the washed wells and maintained for one hour at 37° C. to allow formation of a solid liquid phase immunoreaction products. The wells were then washed three times with maintenance buffer followed by admixture of 50 μl of 2.0 μg/ml of secondary antibody (polyclonal biotinylated goat-anti-rabbit-IgG) (Pierce Biochemicals) diluted in maintenance buffer to each well for the detection of immunoreactant products. The plates were maintained for 1 hour at 37° C. after which time the secondary antibody solution was removed. After washing the wells as described above, 50 μl of 2.0 μg/ml streptavidin-alkaline-phosphatase (Pierce Biochemicals) in maintenance buffer was admixed into each well and maintained for 30 minutes at 37° C. Detection of specific immunoreaction products was obtained by admixture of 150 μl/well of 5 mg/ml p-nitrophenylphosphate (PNPP) (Pierce Biochemicals) in 0.1M diethanolamine and 0.02% NaN3 at pH 9.6 followed by measurement of the change in absorbance at 405 nm over time using the EL312 Microplate Bio-Kinetics Reader and the KinetiCalc Software Program (Biotek Instruments, Inc., Vt.). Non-specific binding was considered as the measured absorbance in 10% BSA blocked wells which served as negative controls without the preceding coating of a specific protein or peptide. Under the described conditions, non-specific binding never exceeded more than 5% of the specific binding.
The specificity of immunoaffinity purified anti-(390-404) antibody towards peptide-(390-404) and PC was evaluated by measuring the binding in solid-phase ELISA of the antibody to immobilized peptides including -(384-398), -(390-404), -(396-410), -(404-390), and -K395A-(390-404) listed in Table 1 with their corresponding SEQ ID NO, and to PC. […]

[3] = Solubility of peptide in buffer solutions; type: physicochemical; settings: concentrations higher than 36 μM
Protocol: Purified peptides were separately resuspended in distilled water to form a dissolved peptide solution at a final concentration of 2.5 mM. Subsequently, […] containing 0.05M Tris hydroxymethyl aminomethanehydrochloride (Tris-HCl) at pH 7.4 (TBS-Az) 0.1M sodium chloride (NaCl), 0.02% sodium azide (NaN3). The pH of the solution was checked, and if necessary, adjusted to pH 7.4 with titrated amounts of 1M Tris-base. For peptides that appeared to be not completely soluble at 2.5 mM in TBS-Az, the partially dissolved peptide suspensions separately were centrifuged at 13,000×g to pellet the insoluble material. The molar concentrations in the resultant individual supernatants were estimated from the absorbance at 280 nm and 257 nm, respectively, for peptide solutions containing aromatic amino acids using a molar extinction coefficient of 5,600 M^-1 cm^-1 for tryptophan and 1,400 M^-1 cm^-1 for tyrosine at 280 nm, using a molar extinction coefficient of 200 M^-1 cm^-1 for phenylalanine at 257 nm. Peptides without aromatic amino acids and poor solubility in aqueous solutions were not evaluated in this invention.

APC = target: T1, APC (Homo sapiens, UniProt P04070); experiment: APC anticoagulant activity, APTT and Xa-1-stage coagulation assays (mean or both); type: biochemical; settings: measured at 36 μM peptide
T1 construct: begins at amino acid residue position 158 and ends at 419; The light chain is 155 amino acid residues in length; tissue Factor IX concentrate from Immuno AG, Vienna; thrombin from Enzyme Research Laboratories
T1 sequence (P04070 212-461): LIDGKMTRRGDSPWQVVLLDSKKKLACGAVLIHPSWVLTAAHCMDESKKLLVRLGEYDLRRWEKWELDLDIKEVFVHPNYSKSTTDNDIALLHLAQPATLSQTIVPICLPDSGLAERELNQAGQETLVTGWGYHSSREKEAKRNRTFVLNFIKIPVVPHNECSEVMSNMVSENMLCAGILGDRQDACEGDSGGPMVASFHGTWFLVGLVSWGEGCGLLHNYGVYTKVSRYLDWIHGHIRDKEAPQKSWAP
T1 sequence (P04070 43-197): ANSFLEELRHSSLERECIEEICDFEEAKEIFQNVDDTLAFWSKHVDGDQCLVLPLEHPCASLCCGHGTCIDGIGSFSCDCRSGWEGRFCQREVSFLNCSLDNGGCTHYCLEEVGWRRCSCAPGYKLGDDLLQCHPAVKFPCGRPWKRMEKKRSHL
Protocol: The effect of the synthetic peptides on APC anticoagulant activity were determined using the APTT assay in the presence of either normal citrate anticoagulated plasma (NHP) or protein S depleted plasma (PSDP). The assays were performed essentially as described. See Marlar et al., Blood, 59:1067-1072 […]; Suzuki et al., J. Biol. Chem., 258:163-168 (1983); Gruber et al., Blood, 73:639-642 (1989); Ohlin et al., Biochem., 29:644-651 (1990). NHP was purchased from George King Bio-Medical, Inc. (Overland Park, Kans.). PSDP was prepared from a normal human citrate-anticoagulated plasma pool from ten healthy donors. Protein S was immunodepleted from the NHP by immunoaffinity chromatography of NHP over an anti-protein S antibody column to form PSDP. The anti-protein S antibody column was prepared by coupling 100 mg of a monoclonal, high-affinity, calcium-independent anti-PS antibody, designated S7, to 30 ml of CNBr-activated Sepharose 4B (Pharmacia) as described in Example 2c1).
For the APTT assay, APC was prepared as described in Example 2c2). […] The concentration of the APC used in the assay was initially optimized with respect to the sensitivity of the assay towards APC-induced prolongation of clotting time compared to clotting time without APC.
Once the optimal concentration of APC was determined, peptides from Table 2 were then separately admixed for a final concentration of 500 μM with 10 nM APC in 100 μl of TBS-BSA at pH 7.4 to form peptide-APC admixtures. The resulting admixtures were maintained for seven minutes at 37° C. Separate aliquots of peptides maintained under the same conditions in the absence of APC served as controls for the inhibitory effect of synthetic peptides on APC anticoagulant activity. After the maintenance period, 100 μl of NHP and 100 μl APTT-reagent Thrombosil (Ortho Diagnostics, Raritan, N.J.) were admixed into each peptide admixture and maintained for 200 seconds at 37° C. to form a pre-coagulation admixture. In some experiments, PSDP was used in the place of NHP to determine the effect of Protein S on the assay system. Coagulation was then initiated by the admixture of 100 μl of 30 mM CaCl2 in TBS prewarmed to 37° C. to each of the pre-coagulation admixtures. The time for clot formation was measured by an Electra 700 Automatic Coagulation Timer (Medical Laboratory Automation, Inc., Mount Vernon, N.Y.). Each peptide's effect was determined in duplicate.
The synthetic peptides listed in Table 4 are presented in the same order as listed in Table 2, i.e., are reproduced from Table 2. […] For peptides at a concentration of 500 μM that inhibited at least 50% of APC anticoagulant activity, analysis of dose-response was subsequently conducted. The column in Table 4 labeled "Inhibition of APC" represents the inhibition of APC anticoagulant activity measured with 500 μM peptide.
For testing the inhibition of the synthetic peptides on APC activity described above, Xa-1-stage coagulation assays were also performed as described. See Seegers et al., Thrombosis Res., 13:233-243 (1978); Marlar et al., supra; and Walker et al., J. Biol. Chem. 265:1484-1489 (1990).

Row | Substance | competition with binding of anti-(390-404) antibody to immobilized PC (anti-(390-404) antibody [1]) | IC50 (anti-(390-404) antibody [1]; 2 μg/ml antibody, 10 μg/ml PC coated, read-out: Half-maximal inhibition of anti-(390-404) antibody binding to immobilized PC) [nM] | binding of anti-(390-404) antibody to immobilized peptide or PC (anti-(390-404) antibody [2]; solid-phase ELISA) | Anti-(390-404) (Absorbance/20 min.) (anti-(390-404) antibody [2]; wells coated with 50 μM peptide or 10 μg/ml PC, 2 μg/ml anti-(390-404) antibody, mean of duplicates) | solubility in buffer solutions [3] | inhibition at 36 µM (APC) [%]
1 | Protein C: human Protein C zymogen immunoaffinity-purified from plasma factor IX concentrate | competed significantly | ~9.2 | Significant immunoreactivity | 249 | – | –
2 | YGVYTAVSRYLDWIH-NH2 [peptide-K395A-(390-404), YGVYTAVSRYLDWIH] | – | – | – | – | limitations of solubility in buffer solutions | 23
